The source of these data is PMC11017252, “Copper(II) Complexes with 2,2′:6′,2″-Terpyridine Derivatives Displaying Dimeric Dichloro−μ–Bridged Crystal Structure: Biological Activities from 2D and 3D Tumor Spheroids to In Vivo Models” (Journal of Medicinal Chemistry, 2024).

For one data set, the system named is CAM. Set-up: method as in PMID 33823390. Conditions: cited from earlier work.
Data set [1] relates to HCT116, A2780, A549, and MCF7 cell lines. Set-up: method as in PMID 28702618. Conditions: cited from earlier work.
Data set [2] deals with HCT116 (colorectal carcinoma cell line). Kind of data set: MTS cell viability assay, 2D culture, HCT116. Format: cell-based, human. The note with it: 48 h of exposure.
Protocol: (§1) The in vitro cytotoxic potential of Cu(II) complexes in tumor and healthy cells was assessed using the MTS assay, a colorimetric method that allows the quantification of viable cells in culture.[46]
Cell culture and maintenance
(§2) The cancer cell lines HCT116 (colorectal carcinoma) and A2780 (ovarian carcinoma) were obtained
(§3) from the American Type Culture Collection (ATCC®, Manassas, VA, USA), as well as the normal
(§4) Apart from the A2780 cell line, which was cultured in Roswell Park Memorial Institute (RPMI)
(§5) medium, all cells were cultured in Dulbecco’s modified Eagle medium (DMEM). Both media were
(§6) supplemented with 10% (v/v) fetal bovine serum (FBS) and 1% (v/v) of a Pen/Strep
(§7) (Penicillin/Streptomycin) solution. To maintain the resistant phenotype of the HCT116DoxR cell line,
(§8) the medium was additionally supplemented with 3.6 μM Dox4. All media and supplements were
(§9) purchased from Thermo Fischer Scientific (Waltham, MA, USA).
(§10) Cells were maintained in 25 cm2 T-flasks (T25) in a humidified atmosphere at 37 °C and 5% (v/v) CO
(§11) (SANYO CO2 Incubator, Electric Biomedical Co., Osaka, Japan).
(§12) The effect of Cu(II) complexes on cell viability was studied in HCT116, HCT116DoxR, and A2780
(§13) cancer cell lines and in normal human primary fibroblasts. Cells were seeded in a density of 0.75×105
(§14) cells/mL into 96-well plates and incubated in a humidified atmosphere at 37 °C and 5% (v/v) CO2 for
(§15) 24 h. After incubation, complexes were weighed, immediately solubilized in 100% (v/v) DMSO and
(§16) diluted for the final concentration with cell culture medium. The medium in each well was replaced by
(§17) a solution of fresh medium containing each Cu(II) complex (concentrations ranging from 0.01 μM to
(§18) as negative and positive controls, respectively.
(§19) Following a second incubation period of 48 h in the same conditions, the supernatant of each well was
(§20) replaced by a solution containing MTS reagent (3-(4,5-dimethylthiazol-2-yl)-5-(3-
(§21) carboxymethoxyphenyl)-2-(4-sulfophenyl)-2H-tetrazolium) provided by the CellTiter 96® AQueous
(§22) Non-Radioactive Cell Proliferation Assay Kit (Promega, Madison, WI, EUA) for a 30 minutes
(§23) incubation. The percentage of viable cells was indirectly determined by the spectrophotometric
(§24) quantification at 490 nm in a microplate reader, Tecan Infinite M200 (Tecan, Männedorf, Switzerland)
(§25) of formazan production, resultant from the reduction of the MTS reagent by mitochondrial
(§26) dehydrogenases. Since these enzymes are only active in viable cells, the absorbance value measured is
(§27) directly proportional to the percentage of viable cells in culture5.
(§28) By analysing the cell viability as a function of log10(concentration) using Prism 8 (GraphPad
(§29) in cell viability) of each complex in the respective cell line at 48 h. The selective index (SI) for each
(§30) complex was also determined by dividing the IC50 of human fibroblasts by the respective IC50 in each
(§31) cancer cell line (allowing us to understand how much active a complex is in tumor versus normal cell).
The test system of data set [3] is A2780 (ovarian carcinoma cell line). Kind of data set: MTS cell viability assay, 2D culture, A2780. Format: cell-based, human. Conditions: 48 h of exposure. For orientation: Tetrazolium assays rely on reduction of a dye to a coloured formazan, in cell work by metabolically active cells.
Protocol: as §1
Cell culture and maintenance
as §2, §3, §4, §5, §6, §7, §8, §9, §10, §11, §12, §13, §14, §15, §16, §17, §18, §19, §20, §21, §22, §23, §24, §25, §26, §27, §28, §29, §30, §31
In another data set the test system is caspase-8. Kind of data set: Caspase-8 activity (IETD-pNA cleavage). Format: cell-based, human. Conditions: HCT116DoxR, 48 h; complexes at IC50, cisplatin 5 μM. The method, then:
In this assay, the chromogenic substrate IETD-pNA, resulting from the conjugation between the peptide IETD (Ile-Glu-Thr-Asp) and the chromophore pNA (p-nitroanilide), is cleaved by caspase-8, releasing the chromophore, which is detected by measuring absorbance at 400 nm.[48] […]
treated with ECLTM Prime Western Blotting Detection Reagents (Cytiva, United Kingdom) for 5 min and exposed to a film in a dark room. Membranes were later incubated (with agitation) twice with Stripping buffer (0.1M glycine, 20 mM magnesium acetate, 50 mM KCl, pH 2.0) during 10 and 20 min, respectively, and subsequently incubated with anti-β-actin (1:5000; Sigma, St. Louis, USA) as a control to normalize the results. Proteins were quantified by densitometry using Image J software.
The Caspase-8 activity in HCT116DoxR cells exposed to Cu(II) complexes was evaluated using the Caspase-8 Assay kit (ab39700) (Abcam, Cambridge, United Kingdom). […]
The plate was then incubated for 2 h at 37°C, after which, absorbance was read at 400 nm on a Tecan Infinite M200 microplate reader (Männedorf, Switzerland).
ΔΨm was evaluated in HCT116DoxR cell line by using the JC-1 Mitochondrial Membrane Potential Assay Kit (Abnova Corporation, Walnut, CA, USA). […]
Autophagy induction in HCT116DoxR cell line was evaluated using the Autophagy Assay Kit (ab139484) (Abcam, Cambridge, United Kingdom) according to the manufacturers’ instructions. […]

In data set [4] the test system is HCT116DoxR cells. The data set can be described thus: Cell cycle progression (PI, flow cytometry).
Description: Therefore, we have assessed the cytostatic potential of complexes 2, 3, 5, and 7, and their ability to interfere with the progression of the cell cycle using the fluorescent marker PI. Since this marker can intercalate with DNA, the measurement of the fluorescence emitted by flow cytometry makes it possible to assess the DNA content at each stage of the cell cycle (G0/G1, S, and G2/M).[67] To ensure that all the cells were in the same phase before their exposure to the complexes, a double block was carried out with thymidine, a DNA synthesis inhibitor.[67]
(§32) HCT116DoxR cell line was seeded in 6-well plates in a density of 1×10^5 cells/mL and incubated for
(§33) 24 h. Afterwards, the culture medium was replaced by medium with IC50 concentrations of different
HCT116DoxR cell line was seeded in 6-well plates in a density of 1×10^5 cells/mL, incubated for 8 h in
a humidified atmosphere at 37 °C and 5% (v/v) CO2, and later synchronized in early S-phase with a 2
mM thymidine solution (Merck, Germany) for a 16 h period. Later, medium with thymidine was
replaced by fresh media and, after 8 h a second block with thymidine was performed in the same
concentrations of Cu(II) complexes. 0.1% (v/v) DMSO was used as the vehicle control while 5 μM
After treatment, cells were incubated for 9, 12,
Data set [5] concerns HCT116DoxR cells. The data set can be described thus: Annexin V-FITC/PI apoptosis assay by flow cytometry. The note with it: 48 h. On the technique in general: In flow cytometry, cells or beads pass a laser one at a time.
Protocol: To evaluate the cell death mechanism involved in the cytotoxic effect of the selected complexes, a double-staining with Annexin V-FITC and PI was performed. […] The use of Annexin V conjugated with the fluorophore FITC allows the quantification of this interaction and subsequent identification of cells in apoptosis by flow cytometry. Furthermore, PI is a fluorophore that can intercalate with DNA and that can only enter the cell when the membrane is either compromised or ruptured, making it possible to identify cells undergoing late apoptosis and necrosis. Therefore, the double staining makes it possible to distinguish between viable cells (FITC^–; IP^–), those undergoing initial apoptosis (FITC^+; IP^–), those undergoing late apoptosis (FITC^+; IP^+), and those undergoing necrosis (FITC^–; IP^+).[55],[58]
Evaluation of apoptosis induction in HCT116DoxR cell line by flow cytometry The induction of apoptosis in HCT116DoxR cell line was evaluated by flow cytometry, using the
Annexin V-FITC Apoptosis Detection Kit (Thermo Fisher Scientific, Waltham, MA, USA). Cells
were seeded in 6-well plates at a cell density of 1×10^5 cells/mL and incubated for 24 h. Afterwards,
culture medium was replaced by medium with different Cu(II) complexes at their IC50 concentrations.
After 48 h of incubation, cells were washed with PBS 1x, detached from each well with TrypLETM
Express and washed again with PBS 1x. Cells were then resuspended in 1x annexin-binding buffer and
incubated at rt for 15 min with Annexin V-FITC and 100 μg/mL PI.
All samples were analysed by an Attune® Acoustic Focusing Flow Cytometer (Thermo Fischer
Scientific, Waltham, MA, USA) and the results were processed with Attune® Cytometric software
In data set [6] the test system is HCT116DoxR cells. Kind of data set: Cellular senescence (β-galactosidase, flow cytometry). Conditions: 48 h; complexes at IC50, cisplatin 5 μM, Dox 6 μM.
Protocol: Given the ability of the Cu(II) complexes to interfere with the progression of the cell cycle, the senescence of HCT116DoxR cells was analyzed after 48 h of exposure to their IC50 concentrations. […] To study the senescence-inducing capacity of the complexes, the activity of β-galactosidase, whose increased expression is associated with senescence, was quantified by flow cytometry (Figure 16).[73]
as §32, §33
(TBHP) were used as controls. After an incubation period of 48 h, cells were washed with PBS 1x, detached with TrypLETM Express and washed again with PBS 1x.
Data set [7] deals with normal human primary dermal fibroblasts. Kind of data set: MTS cell viability assay, normal fibroblasts. Format: cell-based. Conditions: 48 h of exposure.
Protocol: as §1
Cell culture and maintenance
as §2, §3, §4, §5, §6, §7, §8, §9, §10, §11, §12, §13, §14, §15, §16, §17, §19, §20, §22, §23, §24, §25
In the next data set the test system is HCT116DoxR spheroids. The data set can be described thus: MTS cell viability assay in 3D HCT116DoxR spheroids. Format: cell-based, human. Conditions: 6-day-old spheroids, 48 h of exposure.
In a further data set the test system is BAX and BCL-2. The data set can be described thus: BAX and BCL-2 protein expression by Western Blot. Format: cell-based, human. Conditions: HCT116DoxR, 48 h, IC50; normalized to β-actin.
The next data set has as its system pUC18 plasmid DNA. Kind of data set: pDNA cleavage in vitro (agarose gel electrophoresis). Format: biochemical, E. coli.
For the next data set, the system named is EB–ct-DNA adduct. Kind of data set: Ethidium bromide displacement fluorescence assay. Format: binding, calf. The note with it: PBS.
In a further data set the test system is fibroblasts. Kind of data set: Cell migration (wound healing) assay. Format: cell-based, human. The note with it: 24 h; complexes at IC50, Dox 0.4 μM; vs DMSO. The source says:
A wound healing assay was therefore carried out on fibroblasts to study the influence of the Cu(II) complexes on cell migration in vitro. Skin fibroblasts were the model chosen for this assay as they are essential for regenerating damage in this tissue.[85] […]
intrinsic binding constant Kb can be obtained from the ratio of the slope to the intercept of the linear fit of the plot [DNA]/[εa−εf] versus [DNA].
For emission quenching experiments, equimolar solution of ct-DNA and ethidium bromide (EB, Sigma Aldrich) was prepared and allowed to incubate for 2 h in the dark. The tested complexes were titrated into the formed EB–ct-DNA adduct and incubated for additional 30 min. The final concentration of the EB–ct-DNA adduct was 50 μM and the concentration of the complexes varied from 0 to 40 μM. The fluorescence spectra were recorded on FLS-980 spectrofluorometer (Edinburgh Instruments, Livingston, United Kingdom) with excitation wavelength 515 nm and emission wavelength of 620 nm. The apparent binding constant (Kapp) was calculated using the Equations : […]
where I0 and I are the fluorescence intensity in the absence and presence of the complexes; KSV is the Stern-Volmer quenching constant; [Q] is the concentration of the complexes; [Q1/2] is the concentration of the complex causing 50% reduction in the fluorescence intensity; K = 1×107 […]
conditions mentioned before until the presence of a confluent monolayer was detected. A scratch was made on the surface of each well using a sterile 200 μL micropipette tip and the cells were […]
Each plate was then incubated for 24 h in the same conditions mentioned before. […]
The width of each scratch in each image was measured via ImageJ software. […]
The ex-ovo CAM assay was performed to evaluate the copper(II) complexes’ effect on angiogenesis, as already described in literature11,12. […] Newly formed blood vessels were manually counted via ImageJ software. […]
All results were expressed as mean ± SEM of at least two independent biological assays, each obtained by technical duplicates, unless otherwise specified. […]

For another data set, the system named is chicken embryos. Kind of data set: Ex-ovo chick chorioallantoic membrane (CAM) assay. Format: in vivo. Conditions: IC50, vs DMSO control.
The nature of data set [8]: Stability and solubility in biological medium (RPMI) by UV-vis. The note with it: colorless RPMI, 50 μM, 37 °C. Format: physicochemical. The method, then:
The stability of complexes 2, 3, 5, and 7 was assessed by UV–vis spectroscopy at 0, 24, and 48 h of incubation at 37 °C.
In Figure S18, it is possible to observe the spectra of all Cu(II) complexes, where high-energy absorption bands correspond to π → π* and n → π* transitions with peaks in the 230–330 and 330–400 nm ranges, respectively, that are associated with the aromatic rings of terpyridines.[39],[49] Analyzing the spectra of complexes 2 and 3, it is possible to detect the existence of 3 bands (maximum ∼240, ∼ 290, and between 320 and 340 nm). […] Complex 7 only has 2 bands of maximum absorbance at 290 nm and between 320 and 340 nm.
Nevertheless, all Cu(II) complex solutions were freshly prepared and added immediately to cells.

The test system of data set [9] is HCT116DoxR (Dox-resistant colorectal carcinoma cell line). Kind of data set: MTS cell viability assay, 2D culture, HCT116DoxR. The note with it: read-out: IC50 (μM) HCT116DoxR, 48 h of exposure.
[10] abbreviates: complexes at IC50, Dox 6 μM, cisplatin 5 μM.

As to `F[P-](F)(F)(F)(F)F.[Cl][Cu].c1ccc(-c2cc(-c3ccc4ccccc4n3)cc(-c3ccccn3)n2)nc1` [[Cu(4′-(2-quinolinyl)-terpy)Cl](PF6)], in the data set with CAM, the “toxicity in an in vivo model of CAM” value is recorded as “low toxicity”.

For the molecule `Cn1cccc1-c1cc(-c2ccccn2)nc(-c2ccccn2)c1.[Cl][Cu][Cl]`, the cytotoxic activity entry in [1] is “no cytotoxic activity”.

Broadly, the IC50 is the concentration that inhibits the measured activity by half. For the molecule `N.N.[Cl][Pt][Cl]` [cisplatin, reference compound], the IC50 in [2] turned out to be 15.6 ± 5.3 µM. The 50% inhibitory concentration (IC50) in data set [3] was 1.9 ± 0.2 µM. The “increase in caspase-8 activity compared to vehicle control (DMSO)” value in the data set with caspase-8 is given as 2- to 3 fold. For the same molecule, the “cell cycle progression after 24 h” value in the data set with HCT116DoxR cells [4] (24 h, complexes at IC50, cisplatin 5 μM) is “delay the cycle in the G2/M phase”. Further, in the data set on HCT116DoxR cells [5] (setting [10]), the “cells (%) early apoptosis” value was 47.5 ± 7.2%, the “cells (%) late apoptosis” value was found to be 19.8 ± 5.9%, the “cells (%) necrosis” value worked out at 0.1 ± 0.1% and the “percentage of apoptosis (early + late)” value lay in the range of 65 to 70%. Besides, the “induction of cellular senescence compared to DMSO control” value with HCT116DoxR cells [6] is reported as “induce cellular senescence”.

As for `COc1ccc(-c2cc(-c3ccccn3)nc(-c3ccccn3)c2)c2ccccc12.COc1ccc(-c2cc(-c3ccccn3)nc(-c3ccccn3)c2)c2ccccc12.F[P-](F)(F)(F)(F)F.F[P-](F)(F)(F)(F)F.[Cl][Cu+].[Cl][Cu+]` [complex 3, [Cu2Cl2(4′-(4-Methoxy-1-naphthyl)-terpy)2](PF6)2], in data set [2], the IC50 was found to be 0.13 ± 0.02 µM. In addition, the half-maximal inhibitory concentration (IC50) in [3] was 0.66 ± 0.07 µM. Further, in [7], the IC50 worked out at 6.24 ± 0.03 µM. This molecule returned an IC50 in the data set with HCT116DoxR spheroids of 6.35 ± 0.12 µM. Further, in the data set on BAX and BCL-2, the “expression of BAX compared to the DMSO control” value is recorded as “decreases” and the “expression of BCL-2 compared to the DMSO control” value is recorded as “increases”. For the same molecule, the “concentration at which the interaction with pDNA reaches saturation” value in the data set with pUC18 plasmid DNA (100 ng pUC18, 24 h) is 50 μM. Further, the pDNA cleavage mode entry in the data set on pUC18 plasmid DNA (100 ng pUC18, 24 h, 5–100 μM complex) was “single strands”. Further, the “effect of NaN3 (singlet oxygen scavenger) on pDNA cleavage by the complex” value in the data set with pUC18 plasmid DNA (24 h, 50 μM complex + 50 μM NaN3) is given as “partially reversed”. Besides, the “apparent binding constant (Kapp)” value with EB–ct-DNA adduct (EB displacement, KEB = 1 × 10^7 M^–1) is recorded as 3.07 × 10^6 M^–1. Also, the “Stern–Volmer quenching constant KSV” value with EB–ct-DNA adduct (EB–ct-DNA, 0–40 μM complex) stood at 6060 M⁻¹. Moreover, the “fibroblast migration (% of remission)” value in the data set on fibroblasts is recorded as “lower compared to the positive control Dox”. Moreover, the “formation of new blood vessels after 24 h” value in the data set on chicken embryos (24 h) is “antiangiogenic potential”. Besides, the “formation of new blood vessels after 48 h” value in the data set with chicken embryos (48 h) is recorded as “greater decrease in the % of blood vessels formed”. Moreover, in [8], the “maximum absorbances after 24 or 48 h compared to 0 h (reduction of solubility)” value is “slight decrease”. Further, the “cell cycle progression after 12 h” value in the data set with HCT116DoxR cells [4] (12 h, IC50, thymidine double block) is recorded as “delays cell cycle progression in the G2/M phase”. In addition, in the data set on HCT116DoxR cells [4] (18 h, IC50, thymidine double block), the “cell cycle progression after 18 h” value was “delay in cycle progression in the G0/G1 phase”. Besides, the concentration for half-maximal inhibition (IC50) in data set [9] was 0.15 ± 0.01 µM. Besides, in the data set with HCT116DoxR cells [5] (setting [10]), the “cells (%) early apoptosis” value amounted to 51.3 ± 5.7%, the “cells (%) late apoptosis” value is recorded as 14.9 ± 3.6%, the “cells (%) necrosis” value was found to be 0.2 ± 0.2% and the “cells (%) viable” value stood at 33.7 ± 3.6%. For the same molecule, the “percentage of apoptosis (early + late)” value in the data set with HCT116DoxR cells [5] (setting [10]) lay in the range of 65 to 70%. Further, the “fold increase in apoptotic cells, normalized to DMSO” value in the data set with HCT116DoxR cells [5] (complexes at IC50, cisplatin 5 μM) is recorded as roughly 6.4 fold.
